# The source made the active and inactive calls. The rule behind the calls is not given here.
# Key:
# 3T3-L1 [1] = experiment: Inhibition of MDI-cocktail induced adipogenic differentiation in mouse 3T3-L1 pre-adipocyte cells assessed as inhibition of lipid accumulation by Oil Red O staining based microscopic analysis; format: functional, cell-based; settings: dose 0.5-20 µM
# 3T3-L1 [2] = experiment: Anti-adipogenic activity in MDI-cocktail differentiated mouse 3T3-L1 pre-adipocyte cells assessed as inhibition of adipogenesis by Oil Red O staining based microscopic analysis; format: functional, cell-based
# 3T3-L1 [3] = experiment: Inhibition of MDI-cocktail induced adipogenic differentiation in mouse 3T3-L1 pre-adipocyte cells assessed as reduction in PPARgamma protein expression at 0.5 to 5 uM by Western blot analysis; format: functional, cell-based; settings: dose 0.5-5 µM
# 3T3-L1 [4] = experiment: Inhibition of MDI-cocktail induced adipogenic differentiation in mouse 3T3-L1 pre-adipocyte cells assessed as reduction in CEBPalpha gene expression at 5 uM by qRT-PCR analysis; format: functional, cell-based
# 3T3-L1 [5] = experiment: Inhibition of MDI-cocktail induced adipogenic differentiation in mouse 3T3-L1 pre-adipocyte cells assessed as reduction in FABP4 gene expression at 5 uM by qRT-PCR analysis; format: functional, cell-based
# 3T3-L1 [6] = experiment: Inhibition of MDI-cocktail induced adipogenic differentiation in mouse 3T3-L1 pre-adipocyte cells assessed as reduction in FASN gene expression at 5 uM by qRT-PCR analysis; format: functional, cell-based
# 3T3-L1 [7] = experiment: Anti-adipogenic activity in MDI-cocktail differentiated mouse 3T3-L1 pre-adipocyte cells assessed as reduction in adipogenic differentiation at 5 uM measured after 0 to 3 days by Oil Red O staining based microscopic analysis; format: functional, cell-based; settings: time 0-3 day
# 3T3-L1 [8] = experiment: Anti-adipogenic activity in MDI-cocktail differentiated mouse 3T3-L1 pre-adipocyte cells assessed as reduction in adipogenic differentiation at 5 uM measured after 0 to 7 days by Oil Red O staining based microscopic analysis; format: functional, cell-based; settings: time 0-7 day
# C3H 10T1/2 [9] = experiment: Anti-adipogenic activity in MDI-cocktail differentiated mouse C3H 10T1/2 cells assessed as reduction in adipogenic differentiation at 5 uM measured after 0 to 3 days by Oil Red O staining based microscopic analysis; format: functional, cell-based; settings: time 0-3 day
# C3H 10T1/2 [10] = experiment: Anti-adipogenic activity in MDI-cocktail differentiated mouse C3H 10T1/2 cells assessed as reduction in adipogenic differentiation at 5 uM measured after 0 to 7 days by Oil Red O staining based microscopic analysis; format: functional, cell-based; settings: time 0-7 day
# C3H 10T1/2 [11] = experiment: Anti-adipogenic activity in MDI-cocktail differentiated mouse C3H 10T1/2 cells assessed as reduction in adipogenic differentiation at 5 uM measured after 3 to 5 days by Oil Red O staining based microscopic analysis; format: functional, cell-based; settings: time 3-5 day
# C3H 10T1/2 [12] = experiment: Anti-adipogenic activity in MDI-cocktail differentiated mouse C3H 10T1/2 cells assessed as reduction in adipogenic differentiation at 5 uM measured after 3 to 7 days by Oil Red O staining based microscopic analysis; format: functional, cell-based; settings: time 3-7 day
# C3H 10T1/2 [13] = experiment: Anti-adipogenic activity in MDI-cocktail differentiated mouse C3H 10T1/2 cells assessed as reduction in adipogenic differentiation at 5 uM measured after 5 to 7 days by Oil Red O staining based microscopic analysis; format: functional, cell-based; settings: time 5-7 day
# 3T3-L1 [14] = experiment: Anti-adipogenic activity in MDI-cocktail differentiated mouse 3T3-L1 pre-adipocyte cells assessed as reduction in PPARgamma protein expression at 5 uM measured for 3 to 7 days by immunoblotting analysis; format: functional, cell-based; settings: time 3-7 day
# 3T3-L1 [15] = experiment: Anti-adipogenic activity in MDI-cocktail differentiated mouse 3T3-L1 pre-adipocyte cells assessed as reduction in C/EBPalpha protein expression at 5 uM measured for 3 to 7 days by immunoblotting analysis; format: functional, cell-based; settings: time 3-7 day
# 3T3-L1 [16] = experiment: Anti-adipogenic activity in MDI-cocktail differentiated mouse 3T3-L1 pre-adipocyte cells assessed as reduction in FASN protein expression at 5 uM measured for 3 to 7 days by immunoblotting analysis; format: functional, cell-based; settings: time 3-7 day
# 3T3-L1 [17] = experiment: Anti-adipogenic activity in MDI-cocktail differentiated mouse 3T3-L1 pre-adipocyte cells assessed as increase in AMPK phosphorylation at Thr172 residue at 5 uM measured for 3 to 7 days by immunoblotting analysis; format: functional, cell-based; settings: time 3-7 day
# 3T3-L1 [18] = experiment: Induction of cell cycle arrest in MDI-cocktail differentiated mouse 3T3-L1 pre-adipocyte cells assessed as reduction in cyclin D3 protein expression at 5 uM measured after 16 to 24 hrs by immunoblotting analysis; format: functional, cell-based; settings: time 16-24 hrs
# 3T3-L1 [19] = experiment: Induction of mitochondrial respiration in MDI-cocktail differentiated mouse 3T3-L1 pre-adipocyte cells assessed as increase in oxygen consumption rate at 5 uM incubated for 72 hrs in presence of oligomycin by Seahorse XFp flux analyzer; format: functional, cell-based
# 3T3-L1 [20] = experiment: Induction of mitochondrial respiration in MDI-cocktail differentiated mouse 3T3-L1 pre-adipocyte cells assessed as increase in oxygen consumption rate at 5 uM incubated for 72 hrs in presence of rotenone/antimycin A mixture by Seahorse XFp flux analyzer; format: functional, cell-based
# 3T3-L1 [21] = experiment: Induction of spare respiratory capacity during early phase in MDI-cocktail differentiated mouse 3T3-L1 pre-adipocyte cells 5 uM incubated for 72 hrs by Seahorse XFp flux analyzer; format: functional, cell-based
# 3T3-L1 [22] = experiment: Activation of AMPK in mouse 3T3-L1 mature adipocytes assessed as increase in AMPK phosphorylation at Thr172 residue incubated for 24 hrs by Western blot analysis; format: cell-based; settings: filed as activator, dose 1-5 µM
# 3T3-L1 [23] = experiment: Induction of mitochondrial membrane potential in mouse 3T3-L1 mature adipocytes assessed as increase in TMRE fluorescence at 1 to 5 uM incubated for 24 hrs by TMRE staining based fluorescence microscopic analysis; format: functional, cell-based; settings: dose 1-5 µM
# [24] = Toxicity in high-fat diet induced Syrian golden hamster obese model assessed as effect on food intake at 25 to 50 mg/kg, po administered for 7 days and measured daily; format: organism-based, Mesocricetus auratus; settings: in vivo, 168 h, dose 25-50 mg/kg, time 7 day
# Syrian golden hamster [25] = experiment: Anti-obesity activity in high-fat diet induced Syrian golden hamster model assessed as rescue of normal eWAT weight at 25 to 50 mg/kg, po administered for 7 days; format: functional, organism-based; settings: Mesocricetus auratus, dose 25-50 mg/kg, time 7.0 day
# Syrian golden hamster [26] = experiment: Anti-obesity activity in high-fat diet induced Syrian golden hamster model assessed as rescue of normal liver weight at 25 to 50 mg/kg, po administered for 7 days; format: functional, organism-based; settings: Mesocricetus auratus, dose 25-50 mg/kg, time 7.0 day
# Syrian golden hamster [27] = experiment: Anti-obesity activity in high-fat diet induced Syrian golden hamster model assessed as reduction in fat mass at 50 mg/kg, po administered for 7 days by 1H NMR spectroscopy-based Echo MRI system; format: functional, organism-based; settings: Mesocricetus auratus, time 7.0 day
# Syrian golden hamster [28] = experiment: Anti-obesity activity in high-fat diet induced Syrian golden hamster model assessed as reduction in lipid accumulation in liver cells at 50 mg/kg, po administered for 7 days by H and E staining based inverted microscopic analysis; format: functional, organism-based; settings: Mesocricetus auratus, time 7.0 day
# Syrian golden hamster [29] = experiment: Anti-dyslipidaemic activity in high-fat diet induced Syrian golden hamster model assessed as assessed as reduction in serum triglyceride level at 25 to 50 mg/kg, po administered for 7 days; format: functional, organism-based; settings: Mesocricetus auratus, dose 25-50 mg/kg, time 7.0 day
# Syrian golden hamster [30] = experiment: Anti-dyslipidaemic activity in high-fat diet induced Syrian golden hamster model assessed as assessed as reduction in serum LDL-cholesterol level at 25 to 50 mg/kg, po administered for 7 days; format: functional, organism-based; settings: Mesocricetus auratus, dose 25-50 mg/kg, time 7.0 day
# Mesocricetus auratus = experiment: In vivo activation of AMPK in high-fat diet induced Syrian golden hamster model assessed as increase in AMPK phosphorylation at Th172 residue in eWAT at 50 mg/kg, po administered for 7 days by Western blot analysis; format: functional, organism-based; settings: time 7.0 day
structure (smiles),measurement,setting,value
Cc1ccc(-c2cnc(-c3ccc[n+](Cc4cccc(C)c4)c3)o2)cc1.[Br-],inhibition,3T3-L1 [1],Active
same,IC50,3T3-L1 [2]; read-out: IC50,390 nM
same,IC50,3T3-L1 [2]; read-out: pIC50 (converted),390 nM
same,inhibition,3T3-L1 [3],Active
same,inhibition,3T3-L1 [4],Active
same,inhibition,3T3-L1 [5],Active
same,inhibition,3T3-L1 [6],Active
same,Activity,3T3-L1 [7],Active
same,Activity,3T3-L1 [8],Active
same,Activity,C3H 10T1/2 [9],Active
same,Activity,C3H 10T1/2 [10],Active
same,Activity,C3H 10T1/2 [11],Active
same,Activity,C3H 10T1/2 [12],Active
same,Activity,C3H 10T1/2 [13],Active
same,Activity,3T3-L1 [14],Active
same,Activity,3T3-L1 [15],Active
same,Activity,3T3-L1 [16],Active
same,Activity,3T3-L1 [17],Active
same,Activity,3T3-L1 [18],Active
same,Activity,3T3-L1 [19],Active
same,Activity,3T3-L1 [20],Active
same,Activity,3T3-L1 [21],Active
same,Activity,3T3-L1 [22],Dose-Dependent Effect
same,Activity,3T3-L1 [23],Active
same,Activity,[24],Non-Toxic
same,Activity,Syrian golden hamster [25],Active
same,Activity,Syrian golden hamster [26],inactive
same,Activity,Syrian golden hamster [27],Active
same,Activity,Syrian golden hamster [28],Active
same,Activity,Syrian golden hamster [29],Active
same,Activity,Syrian golden hamster [30],Active
same,Activity,Mesocricetus auratus,Active
